Reference: patent US12071469B2, “Peptide compounds for suppressing inflammation” (Duke University, priority 2011, dated 2024)
Entries after “also recorded” stand apart in the source; their conditions may differ.

Assays:
[1] = system: mice with intracerebral hemorrhage; test: Rotorod vestibulomotor function after intracerebral hemorrhage (collagenase injection); assay type: in vivo, mouse; settings: 0.05 mg/kg iv at 2 h and 6 h after intracerebral hemorrhage
Method: An experimental murine model for intracerebral hemorrhage was also provided. James, et al. (2009) Stroke, 40:632-39. Male mice (age 16-20 weeks) were anesthetized with 4.6% isoflurane in oxygen in an anesthesia induction box for 90 seconds. The trachea was intubated and the lungs mechanically ventilated with 1.6% isoflurane in a 70/30 mixture of nitrogen/oxygen. Body temperature was maintained at 37° C. using an underbody warming system. The animal's head was secured in a stereotactic frame, local anesthetic was injected, and the scalp incised. […]
An experimental procedure for measuring neurological deficits was developed. […] The average time to fall from the rotating cylinder in the latter three trials was recorded as baseline latency. […] Average latency to fall from the rod was recorded, and mice unable to grip the rod were scored with a latency of 0 seconds.
Groups of mice received either an ApoE mimetic peptide (SEQ ID NO:4; 0.05 mg/kg) or carrier (saline) by intravenous tail vein injection a 2 hours and again at 6 hours after intracerebral hemorrhage induced as described in Example 3. Each mouse was tested for vestibulomotor function by rotorod latency measured before and after induced intracerebral hemorrhage as described in Example 3.

[2] = system: mixed glial primary culture; test: Suppression of TNF-α release in mixed glial primary culture after exposure to LPS; assay type: cell-based, murine; settings: FIGS. 11A and 11B
Method: In vitro methods have been developed using cultured cells for evaluating the ability of a compound, such as a peptide, to suppress glial activation. Laskowitz et al., (2001) Exp. Neurol., 167:74-85. Glial cell cultures were grown and maintained under standard conditions. Cultured glial cells may include primary murine mixed glial cell cultures, murine BV-2 microglial cells, and human C3 microglial cells. Adherent glial cells were washed with OptiMEM® medium (available from Invitrogen Corp.) to remove serum and covered with fresh OptiMEM® medium containing peptide.
Larger peptides or proteins may need to be tested at higher concentrations to observe measurable suppression of glial activation. If using primary murine cells and BV-2 cells, cells are stimulated with 100 ng/ml E. coli LPS (available from Sigma-Aldrich Co.), and supernatant is collected six hours after LPS stimulation and assayed for nitrite (using a colorimetric Griess reagent system, available from Promega Corp.) and/or TNF-α (using a solid-phase ELISA kit, available from Invitrogen Corp.). If using human C3 cells, cells are stimulated with 200 μg/ml polyinosinic acid 5′ (available from Sigma-Aldrich Co.), and supernatant is collected 5 days after stimulation and assayed for TNF-α using a solid-phase ELISA kit (available from Invitrogen Corp.).
The protective activity against brain injury-downregulating CNS inflammatory response was determined for ApoE mimetic peptides, VR-55 (SEQ ID NO: 4), VL-5-1 (SEQ ID NO: 5) and VL-5-3 (SEQ ID NO: 10).

mice with blast injury = test: Morris water maze after blast injury (shock tube blast model); assay type: in vivo, mouse
Method: Another experimental procedure for measuring neurological deficits was developed using a Morris water maze. The procedure used a black aluminum pool containing a movable platform (7.5 cm diameter) and filled with 25-27° C. water opacified with powdered milk. Each training or testing session consisted of four trials per day with an interval of 20-30 minutes between trials. One day before testing, mice were trained using a visible platform (platform flagged and located in a different quadrant each trial to minimize quadrant habituation, no extra-maze visual cues) to habituate the mice to handling and swimming and to teach the mice the goal of the test-escaping the water by climbing on the platform. […] Latency to finding the platform and swimming speed were recorded using a computerized video tracking system (Ethovision 2.2.14; available from Noldus Information Technology, Leesburg VA). […]
The shock tube was mounted vertically on an extruded aluminum frame using three vibration-damping U-bolts. […] Peak incident overpressure, positive-phase duration, and peak incident impulse were recorded in the three end-tube PTs for each test (data not shown). […] Atmospheric conditions (temperature, barometric pressure, humidity) were recorded prior to each test. […]

## Ac-VSRRR-NH2 [VR-55, Ac-VSRRR-NH2]
[1]
  durability of effect on rotorod latency: durable through the five-day testing period
[1]; FIG. 5
  vestibulomotor performance (rotorod latency) compared to carrier: improved vestibulomotor performance
[2]
  release of inflammatory cytokine TNF-α: inhibition of microglial TNF-α secretion; also recorded: suppress the release of inflammatory cytokine TNF-α
Mice with blast injury; FIG. 8, groups of 15
  neurocognitive deficit after blast injury (Morris water maze): reduces neurocognitive deficit after blast injury
Mice with blast injury; blast injury, vehicle 17.8±1.9 seconds, p=0.24
  time in the correct quadrant (probe trial): 21.8 ± 2.7 s
